Measurements from ChEMBL document CHEMBL1151409, “Flavonoids of Desmanthus illinoensis” (1983).
The source made the active and inactive calls. The rule behind the calls is not given here.

Assays:
Heliothis virescens = test: Growth inhibition of tobacco budworm larvae assessed as percent of diet; format: functional
[1] = tested on: Stenotrophomonas maltophilia; test: Antibacterial activity against Pseudomonas maltophilia at 100 ug by test disc paper method; format: functional; details: read-out: IZ
[2] = tested on: Lysinibacillus sphaericus; test: Antibacterial activity against Bacillus sphaericus by test disc paper method; format: functional, organism-based
Bacillus thuringiensis = test: Antibacterial activity against Bacillus thuringiensis at 100 ug by test disc paper method; format: functional; details: read-out: IZ
Bacillus subtilis = test: Antibacterial activity against Bacillus subtilis at 100 ug by test disc paper method; format: functional; details: read-out: IZ
Solanum lycopersicum = test: Growth regulatory activity on tomato root; format: functional, organism-based

SMILES | ED50 (Heliothis virescens) [%] | zone of inhibition at 100 µg/disc [1] [mm] | Activity [2] | zone of inhibition at 100 µg/disc (Bacillus thuringiensis) [mm] | zone of inhibition at 100 µg/disc (Bacillus subtilis) [mm] | Activity (Solanum lycopersicum)
C[C@H]1O[C@@H](Oc2c(-c3cc(O)c(O)c(O)c3)oc3cc(O)cc(O)c3c2=O)[C@@H](O)[C@@H](O)[C@@H]1O [MYRICITRIN] | 0.11 |  |  |  |  | 
C[C@H]1O[C@@H](Oc2c(-c3cc(O)c(O)c(O)c3)oc3cc(O)cc(O)c3c2=O)[C@@H](OC(=O)c2cc(O)c(O)c(O)c2)[C@@H](O)[C@@H]1O | 0.09 | 10 | Active | 10 | 10 | 
O=c1c(O)c(-c2ccc(O)c(O)c2)oc2cc(O)cc(O)c12 [QUERCETIN] | 0.05 | 10 |  |  |  | 
C[C@H]1O[C@@H](Oc2c(-c3cc(O)c(O)c(O)c3)oc3cc(O)cc(O)c3c2=O)[C@@H](O)[C@@H](O)[C@@H]1OC(=O)c1cc(O)c(O)c(O)c1 | 0.04 |  |  |  |  | inactive
O=C(O)c1cc(O)c(O)c(O)c1 [GALLIC ACID] | 18.5 |  | Active |  | 10 | 
